Assay results: PubChem BioAssay (NCI)
Values joined by “and” are separate entries in the source; they are usually repeats but may differ in a detail not shown here. Equal values may be shown once.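 Assay format: 96-well plates, 48-hour exposure. The concentration for 50% growth inhibition is given as GI50. TGI denotes the concentration required for complete inhibition of growth.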

Assays:
Assay in all cases: NCI tumour cell line growth inhibition, 48 h
A498 renal = system: A498 renal
CAKI-1 renal = system: CAKI-1 renal
M14 melanoma = system: M14 melanoma
MCF7 breast = system: MCF7 breast
MOLT-4 leukemia = system: MOLT-4 leukemia
NCI-H226 lung = system: NCI-H226 lung
NCI-H23 lung = system: NCI-H23 lung
NCI/ADR-RES ovarian = system: NCI/ADR-RES ovarian
OVCAR-5 ovarian = system: OVCAR-5 ovarian
SF-268 CNS = system: SF-268 CNS
SF-539 CNS = system: SF-539 CNS
SK-MEL-28 melanoma = system: SK-MEL-28 melanoma
SK-OV-3 ovarian = system: SK-OV-3 ovarian
SNB-19 CNS = system: SNB-19 CNS
U251 CNS = system: U251 CNS
UACC-257 melanoma = system: UACC-257 melanoma
UO-31 renal = system: UO-31 renal
HCT-116 colon = system: HCT-116 colon
RXF 393 renal = system: RXF 393 renal

| SMILES | TGI (A498 renal) | TGI (CAKI-1 renal) | TGI (M14 melanoma) | TGI (MCF7 breast) | TGI (MOLT-4 leukemia) | TGI (NCI-H226 lung) | TGI (NCI-H23 lung) | TGI (NCI/ADR-RES ovarian) | TGI (OVCAR-5 ovarian) | TGI (SF-268 CNS) | TGI (SF-539 CNS) | TGI (SK-MEL-28 melanoma) | TGI (SK-OV-3 ovarian) | TGI (SNB-19 CNS) | TGI (U251 CNS) | TGI (UACC-257 melanoma) | TGI (UO-31 renal) | TGI (HCT-116 colon) | TGI (RXF 393 renal) | GI50 (MCF7 breast) |
| --- | --- | --- | --- | --- | --- | --- | --- | --- | --- | --- | --- | --- | --- | --- | --- | --- | --- | --- | --- | --- |
| C/C(=N\NC(=S)N1CCN(C)CC1)c1nc2ncccc2[nH]1 | > 100 µM | > 100 µM | > 100 µM | 80.5 µM | > 100 µM | > 100 µM | > 100 µM | > 100 µM | > 100 µM | > 100 µM | > 100 µM | > 100 µM | > 100 µM | > 100 µM | > 100 µM | > 100 µM | > 100 µM | – | – | – |
| CN(Cc1cccc2ccccc12)Cc1cccc2ccccc12 | 80.1 µM | > 100 µM | 74.3 µM | 45 µM | 35 µM | 86.4 µM | > 100 µM | > 100 µM | > 100 µM | > 100 µM | 59.6 µM | > 100 µM | > 100 µM | > 100 µM | 49.6 µM | > 100 µM | > 100 µM | 55.8 µM | > 100 µM | – |
| O=C(O)NCC1CCCCC1 (tested in a mixture with another compound) | 34.1 µM | > 100 µM | > 100 µM | – | > 100 µM | 41.2 µM | 81.2 µM | 83.8 µM | > 100 µM | 38.4 µM | – | > 100 µM | – | > 100 µM | 20.3 µM | 63.2 µM | > 100 µM | 88.7 µM | 45.9 µM | – |
| N=[N+]=CC(=O)CCC(NC(=O)C(CCC(=O)C=[N+]=N)NC(=O)CCC(N)C(=O)O)C(=O)O (centres undefined) | > 100 µM | > 100 µM | – | > 100 µM | > 100 µM | > 100 µM | > 100 µM | > 100 µM | > 100 µM | > 100 µM | > 100 µM | > 100 µM | > 100 µM | > 100 µM | > 100 µM | > 100 µM | > 100 µM | > 100 µM | > 100 µM | – |
| C[n+]1c2ccccc2c(NC(CS)C(=O)O)c2ccccc21 (centres undefined) | 53 µM | 97.2 µM | > 100 µM | – | 38.6 µM | > 100 µM | > 100 µM | – | > 100 µM | 70.2 µM | 44 µM | – | 61 µM | > 100 µM | 89.4 µM | 92.9 µM | 66.6 µM | 30.7 µM | 60.7 µM | – |
| CC(C)(C)C(=O)CP(=O)(O)O | > 100 µM | > 100 µM | > 100 µM | > 100 µM | > 100 µM | > 100 µM | > 100 µM | > 100 µM | > 100 µM | > 100 µM | > 100 µM | > 100 µM | > 100 µM | > 100 µM | > 100 µM | > 100 µM | – | > 100 µM | > 100 µM | – |
| C/C=C(\C)C(=O)OC1C(C)=C2C(C1OC(=O)CCCC)C(C)(OC(C)=O)CC(OC(=O)CCCC)C1(O)C2OC(=O)C1(C)O (centres undefined) | > 100 µM | > 92.2 µM | 4.53 µM | > 100 µM | > 100 µM | > 25.8 µM | > 47.4 µM | > 100 µM | > 93.3 µM | > 100 µM | > 100 µM | > 100 µM | > 100 µM | > 100 µM | > 100 µM | > 100 µM | 71.2 µM | 2.09 µM | > 100 µM | – |
| C[n+]1ccc(Nc2ccc(NC(=O)c3ccc(Nc4cc[n+](C)c5ccc([N+](=O)[O-])cc45)cc3[N+](=O)[O-])cc2)cc1 | > 94.1 µM | > 100 µM | > 100 µM | > 58.3 µM | > 100 µM | 99.7 µM and > 100 µM | > 100 µM | > 100 µM | > 100 µM | > 100 µM | 68.5 µM and > 66.7 µM | 74.1 µM and 62.2 µM | > 100 µM | > 100 µM | > 84.6 µM | > 100 µM | 98.9 µM and > 79.4 µM | > 100 µM | > 100 µM | 1.25 µM and 3.34 µM |
| Nc1c(C(=O)Nc2ccc(C3=NCCN3)cc2)cccc1C(=O)Nc1ccc(C2=NCCN2)cc1 | > 100 µM | > 100 µM | – | > 100 µM | > 100 µM | > 100 µM | > 100 µM | > 100 µM | > 100 µM | > 100 µM | > 100 µM | > 100 µM | > 100 µM | > 100 µM | > 100 µM | > 100 µM | > 100 µM | > 100 µM | > 100 µM | – |
| Nc1ccc(S(=O)(=O)Nc2ccc(Nc3c4ccccc4nc4ccccc34)cc2)cc1 | 1.14 µM | 0.517 µM | 17.5 µM | 16 µM | – | 0.851 µM | 0.732 µM | 19.8 µM | 12.9 µM | 13.8 µM | 0.362 µM | 20.8 µM | 0.501 µM | 9.54 µM | 4.94 µM | 20.2 µM | 4.24 µM | 15.6 µM | 13.7 µM | – |
| Cc1c(Cl)c(S(N)(=O)=O)cc2c1NC=NS2(=O)=O | > 100 µM | > 100 µM | > 100 µM | > 100 µM | > 100 µM | > 100 µM | > 100 µM | > 100 µM | > 100 µM | > 100 µM | – | > 100 µM | > 100 µM | > 100 µM | > 100 µM | > 100 µM | > 100 µM | > 100 µM | > 100 µM | – |
| Cc1cc2sc(C)[n+](CCCOS(=O)(=O)[O-])c2cc1C | > 100 µM | > 100 µM | > 100 µM | > 100 µM | > 100 µM | > 100 µM | > 100 µM | > 100 µM | > 100 µM | > 100 µM | > 100 µM | > 100 µM | > 100 µM | > 100 µM | > 100 µM | > 100 µM | > 100 µM | > 100 µM | > 100 µM | – |
| COC(=O)c1cc2cc3c(c(O)c2c(=O)o1)O[C@@]1(Oc2c(O)c4c(c(O)c2[C@H]1OC1CC(OC)C(O)C(C)O1)C(=O)C=C(OC)C4=O)[C@H](O)C3 (some centres undefined) | – | 3.2 µM | > 100 µM | 10.1 µM | 6.22 µM | 17.1 µM | 3.85 µM | > 100 µM | > 24.3 µM | 5.19 µM | 1.97 µM | 1.91 µM | 17 µM | 12.6 µM | – | 14.1 µM | > 30.4 µM | > 20.8 µM | 3.25 µM | – |
| O=C(NC1C=Nc2ccc([N+](=O)[O-])cc2NC1=O)c1cc(Cl)cc([N+](=O)[O-])c1 (centres undefined) | > 100 µM | > 100 µM | > 100 µM | – | > 100 µM | > 100 µM | > 100 µM | – | > 100 µM | > 100 µM | > 100 µM | > 100 µM | > 100 µM | > 100 µM | > 100 µM | > 100 µM | > 100 µM | > 100 µM | > 100 µM | – |
| Cc1ccc(N=Nc2ccc(N)cc2C)c(S(N)(=O)=O)c1 | > 100 µM | > 100 µM | > 100 µM | > 100 µM | > 100 µM | > 100 µM | > 100 µM | > 100 µM | > 100 µM | > 100 µM | > 100 µM | > 100 µM | > 100 µM | > 100 µM | > 100 µM | > 100 µM | > 100 µM | > 100 µM | > 100 µM | – |
